Values quoted from earlier work, collected in publication PMC4610172, “5-Arylaminouracil Derivatives as Potential Dual-Action Agents” (Acta Naturae, 2015).

System: MS-115 strain with multiple-drug resistance
Conditions: MS-115 resistant to isoniazid, rifampicin, streptomycin, ethambutol, pyrazinamide; cited from earlier work

CCCCOc1ccc(Nc2cn(C3C=CC(O)C3)c(=O)n(C3C=CC(O)C3)c2=O)cc1 (stereo not shown) [Compound 19]
Activity against MS-115 strain relative to sensitive H37Rv laboratory strain: higher activity against the MS-115 strain
